One data set concerns MM.1S. The protocol: (§1) The luminescent readings obtained in the assay were used to measure the percentage of cell death following treatment with increasing doses of BOLD-100 for 24 hours. Each cell line was treated in triplicate and the average cell death was used to calculate the IC50 or […] inhibitory concentration dose in these cell lines using a nonlinear regression fit.
(§2) Proteasome inhibitors (PI) and immunomodulatory drugs (IMiD) are used as standards of care treatments in MM disease in the clinic. […] Specifically, the MM.1S cell line was developed to acquire partial resistance to proteasome inhibitors bortezomib (MM.1S BR) and carfilzomib (MM.1S CR) by treating the MM.1S cell line with increasing doses of the drugs for about 6 months and the OPM2 cell line was developed to acquire partial resistance to IMiD lenalidomide (OPM2 LR) and pomalidomide (OPM2 PR) by treating the OPM2 cell line with increasing doses of the drugs for about 6 months.

The test system of data set [1] is OPM2 PR (pomalidomide resistant). The settings on record: read-out: BOLD-100 IC50, 24 hours, Example 2, FIG. 2B. The protocol: as §1, §2
Another data set concerns OPM2. The settings on record: OPM2, 24 hours. The protocol:
as §1, §2

For data set [2], the system named is OPM2 LR (lenalidomide resistant). The settings on record: 24 hours. The protocol:
as §1, §2

Another data set relates to JJN3. The settings on record: JJN3, 24 hours, Table 1. Here is the method:
as §1

The subject of a further data set is KMS27. The settings on record: KMS27, 24 hours, Table 1. The protocol: as §1
A further data set has as its system XG-1. The following applies: XG-1, 24 hours, Table 1. Here is the method: as §1
For the next data set, the system named is XG-2. The following applies: XG-2, 24 hours, Table 1. Here is the method:
as §1

A further data set relates to H1112. The following applies: H1112, 24 hours, Table 1. The protocol: as §1
Another data set concerns MOLP8. The settings on record: MOLP8, 24 hours, Table 1. Here is the method:
as §1

Data set [3] has as its system MM.1S CR in presence of HS-5. The following applies: MM.1S CR in co-culture with HS-5, FIG. 5. Here is the method: (§3) Bone marrow stromal cells are understood to provide a protective environment for cells, insulating bone marrow cells from drug effects. […] To do this, a co-culture assay was carried out, in which MM cells were grown in co-culture with a bone marrow stromal cell line HS-5. MM cell lines adhere to stromal cells in culture and the stromal cells can provide a protective effect against drug induced apoptosis/growth inhibition. Dose response curves were generated for the PI-sensitive cell line MM.1 S, and the two PI resistant lines MM.1S BR and MM.1S CR in presence of HS-5 by standard CTG assay.

Data set [4] deals with bone marrow cell line HS-5. The following applies: bone marrow stromal cell line HS-5, FIG. 5. Here is the method: as §3
The subject of data set [5] is MM.1S BR in presence of HS-5. The settings on record: MM.1S BR in co-culture with HS-5, FIG. 5. Here is the method: as §3
Data set [6] deals with MM.1S in presence of HS-5. The settings on record: MM.1S in co-culture with HS-5, FIG. 5. Here is the method: as §3
The subject of data set [7] is MM.1S BR (bortezomib resistant).
Excerpt: as §2

Where [8] appears, read: read-out: BOLD-100 IC50, 24 hours, Example 2, FIG. 2A.

Where two headings read alike, the source gives them in different places.

By IC50 is commonly meant the midpoint of a concentration-inhibition curve. Regarding `[Cl][Ru]([Cl])([Cl])[Cl].[Na+].c1ccc2[nH]ncc2c1.c1ccc2[nH]ncc2c1` [BOLD-100, Sodium trans-[tetrachloridobis(1H-indazole)ruthenate(III)]], the IC50 in the data set with MM.1S (24 hours, Table 1) came out at 106 µM; with MM.1S (setting [8]), 83 µM; in data set [1], 51 µM; in the data set with OPM2 (Table 1), 130 µM; in the data set on OPM2 (read-out: BOLD-100 IC50, Example 2, FIG. 2B) it was 120 µM; in [2] (Table 1) it was 108 µM. For the same compound, the 50% inhibitory concentration (IC50) result is “Not reached” in the data set on JJN3; 128 µM in the data set with KMS27; 49 µM in the data set with XG-1; 54 µM in the data set with XG-2; 72 µM with H1112; 115 µM in the data set with MOLP8. Besides, the half-inhibitory concentration (IC50) in [7] (setting [8]) was determined as 23 µM; in [7] (read-out: BOLD-100 IC50, 24 hours, FIG. 2A legend) it was 23 µM. The “sensitivity to BOLD-100 compared to parental OPM2” value in [2] (FIG. 2B) is “higher sensitivity”. For the same compound, the impact on viability result in data set [3] was “negatively impact the viability”; in data set [4], “minimal impact”; in data set [5], “negatively impact the viability”; in [6], “negatively impact the viability”.

(Values after patent US20250235465A1, “USE OF SODIUM TRANS-[TETRACHLORIDOBIS(1H-INDAZOLE)RUTHENATE(III)] TO AMELIORATE PROTEASOME INHIBITOR RESISTANCE” (Bold Therapeutics Inc., priority 2021, published 2025).)
